Assay: Solubility of alkyl para-hydroxybenzoates in a solubilizer/solvent (80° C., stirring one hour, dissolution monitored over time)
Assay type: physicochemical
Conditions: comparative; same amount (60% by weight) in water, conventionally used solvent
Protocol: Protocol: The alkyl para-hydroxybenzoates are weighed out and placed in a hermetic pill bottle. The required amount of lipophilic amino acid derivative (solubilizer) is added. The suspension is brought to 80° C. and stirred. by magnetic stirring for one hour. The dissolution or non-dissolution of the alkyl para-hydroxybenzoate and its change over time are then monitored. The insolubility of the alkyl para-hydroxybenzoate in the solubilizer is characterized macroscopically by a precipitate or just a cloudy solution, and microscopically by the presence of crystals.

CCCOC(=O)c1ccc(O)cc1 [propyl para-hydroxybenzoate]
dissolution or non-dissolution in water: formation of insoluble crystals and a paste

Source: patent publication US20060147400A1, “Composition, especially a cosmetic composition, containing at least one alkyl para-hydroxybenzoate and at least one lipophilic amino acid derivative” (L'Oreal, priority 2002, published 2006)
